Results reported in patent publication US20160199392A1, “METHOD FOR INDIVIDUALIZED DRUG THERAPY” (Autotelic LLC, priority 2015, published 2016).
Marks after values point to notes of the source that are not given here.

Assays:
[1] = system: Signs and Symptoms of Osteoarthritis; details: cited from earlier work
[2] = Combined plots / meta analysis of published pharmacokinetic data; format: in vivo, patients
Procedure: Accordingly, the dose proportionality may not be as is described by the package insert for Celebrex®. As a result of the failure to determine and pursue target PK ranges, in some instances patients receiving 100 mg patients may not get enough of the drug and the 200 mg patients may receive too much of the drug.
In other words, the most efficacious celecoxib dosage is highly individualized among the elderly. Unexpectedly, elderly here is defined as patients greater than >40 or >50, not the usually definition of elderly (age greater>65).
Based on the wide range of AUC values, some instances patients receiving 100 mg patients may not get enough of the drug and the 200 mg patients may receive too much of the drug (FIG. 2).

pain = details: 100 mg dose, for the duration of the six week study; cited from earlier work
[3] = Naproxen group, at 12 weeks, n = 198

Row | Compound | Withdrawal due to treatment failure (%) ([1]; Naproxen group, 12 weeks, n = 198) | Patient global assessment condition improved (%) [1, 3] | Patient global assessment condition worsened (%) [1, 3] [%] | Physician's global assessment condition improved (%) [1, 3] | Physician's global assessment condition worsened (%) [1, 3] [%] | Mean +/− SEM Osteoarthritis Severity Index ([1]; Naproxen group, at 12 weeks, scale 0 to 24, negative change indicating improvement) | Mean +/− SEM WOMAC Osteoarthritis Index composite score ([1]; Naproxen group, at 12 weeks, scale 0 to 96, negative change indicating improvement) | variability of PK parameters (AUC) by age group ([2]; applicant's meta analysis, one dose AUC, elderly (>40 or >50) vs younger patients, FIG. 3) | variability of pharmacokinetics ([2]; combined plots of published pharmacokinetic data, FIG. 2, 100 mg and 200 mg doses) | side effects reported ([1]; 100 mg dose compared with 200 mg dose) | side effects reported (pain)
1 | COc1ccc2cc([C@H](C)C(=O)O)ccc2c1 [Naproxen, naproxen] | 26‡ % | 29‡ % | 2 | 33‡ % | 1 | −3.1 +/− 0.30‡ | −11.9 +/− 1.29‡ |  |  |  | 
2 | Cc1ccc(-c2cc(C(F)(F)F)nn2-c2ccc(S(N)(=O)=O)cc2)cc1 [celecoxib, Celecoxib] |  |  |  |  |  |  |  | higher variability than younger patients | unexpectedly high | fewer side effects | fewer side effects
